In ChEMBL document CHEMBL3046244, “Efficient synthesis of piperazine-2,6-dione and 4-(1H-indole-2-carbonyl)piperazine-2,6-dione derivatives and their evaluation for anticancer activity” (2013):

Assays:
Type in all cases: functional
T47D = assay: Growth inhibition of Homo sapiens (human) T47D cells at 10 uM after 48 hr by SRB assay; conditions: read-out: GI
NCI-H522 = assay: Growth inhibition of Homo sapiens (human) NCI-H522 cells at 10 uM after 48 hr by SRB assay; conditions: NCI-H522, 48 h, read-out: GI
PA-1 = assay: Growth inhibition of Homo sapiens (human) PA1 cells at 10 uM after 48 hr by SRB assay; conditions: PA-1, 48 h, read-out: GI
HepG2 = assay: Growth inhibition of Homo sapiens (human) HepG2 cells at 10 uM after 48 hr by SRB assay; conditions: HepG2, 48 h, read-out: GI
HCT-15 = assay: Growth inhibition of Homo sapiens (human) HCT15 cells at 10 uM after 48 hr by SRB assay; conditions: HCT-15, 48 h, read-out: GI

Structure (SMILES) | inhibition of growth at 10 µM (T47D) [%] | inhibition of growth at 10 µM (NCI-H522) [%] | inhibition of growth at 10 µM (PA-1) [%] | inhibition of growth at 10 µM (HepG2) [%] | inhibition of growth at 10 µM (HCT-15) [%]
O=C1CCCN1CCCN1C(=O)CN(C(=O)c2cc3ccccc3[nH]2)CC1=O | 14 | 8 | 8 | 11 | 27
O=C(c1cc2ccccc2[nH]1)N1CC(=O)N(CCCn2ccnc2)C(=O)C1 | 0 | 0 | 17 | 34 | 7
O=C(c1cc2ccccc2[nH]1)N1CC(=O)N(Cc2ccccn2)C(=O)C1 | 20 | 19 | 23 | 34 | 2
O=C1CNCC(=O)N1Cc1cccs1 | 8 | 15 | 18 | 29 | 4
O=C1CCCN1CCCN1C(=O)CNCC1=O | 21 | 21 | 25 | 40 | 19
O=C1CNCC(=O)N1CCc1cccs1 | 16 | 21 | 15 | 24 | 25
O=C(c1cc2ccccc2[nH]1)N1CC(=O)N(Cc2ccncc2)C(=O)C1 | 21 | 5 | 42 | 20 | 38
O=C(c1cc2ccccc2[nH]1)N1CC(=O)N(Cc2ccco2)C(=O)C1 | 21 | 15 | 23 | 36 | 24
O=C(c1cc2ccccc2[nH]1)N1CC(=O)N(C2CCCCC2)C(=O)C1 | 7 | 6 | 40 | 25 | 30
O=C1CNCC(=O)N1CCN1CCOCC1 | 1 | 9 | 37 | 38 | 4
O=C(c1cc2ccccc2[nH]1)N1CC(=O)N(CCN2CCOCC2)C(=O)C1 | 16 | 8 | 18 | 3 | 7
O=C(c1cc2ccccc2[nH]1)N1CC(=O)N(CCc2cccs2)C(=O)C1 | 9 | 14 | 11 | 19 | 4
O=C(c1cc2ccccc2[nH]1)N1CC(=O)N(Cc2cccs2)C(=O)C1 | 6 | 0 | 24 | 45 | 15
O=C(c1cc2ccccc2[nH]1)N1CC(=O)N(Cc2cccnc2)C(=O)C1 | 12 | 4 | 13 | 17 | 14
O=C1CNCC(=O)N1Cc1ccco1 | 4 | 7 | 26 | 21 | 30
O=c1[nH]cc(F)c(=O)[nH]1 [FLUOROURACIL] | 15 | 24 | 22 | 18 | 19
O=C1CNCC(=O)N1CCCn1ccnc1 | 8 | 8 | 23 | 13 | 32
C[C@@H]1C[C@@H]([C@H](O)CC2CC(=O)NC(=O)C2)C(=O)[C@@H](C)C1 [CYCLOHEXIMIDE] | 11 | 15 | 34 | 26 | 16
O=C1CNCC(=O)N1Cc1cccnc1 | 8 | 4 | 20 | 21 | 20
O=C1CNCC(=O)N1C1CCCCC1 | 15 | 11 | 24 | 38 | 7
O=C(c1cc2ccccc2[nH]1)N1CC(=O)N(CCN2CCCC2)C(=O)C1 | 16 | 31 | 29 | 30 | 17
O=C1CNCC(=O)N1CCN1CCCC1 | 1 | 0 | 26 | 18 | 49
O=C1CNCC(=O)N1Cc1ccccn1 | 16 | 8 | 17 | 31 | 1
O=C1CNCC(=O)N1Cc1ccncc1 | 4 | 8 | 27 | 25 | 33
O=P1(N(CCCl)CCCl)NCCCO1 (stereo not given) [CYCLOPHOSPHAMIDE ANHYDROUS] | 26 | 11 | 12 | 18 | 12
